What follows are compounds tested on P. falciparum 3D7 growth, pLDH absorbance (assay: blood-stage malaria parasite growth potency – strain 3D7, dose response (AID 2305)).

| SMILES | IC50 [nM] |
| --- | --- |
| CN1CCC(C(=O)N(Cc2ccc(-c3ccc(CNCCc4ccc(S(C)(=O)=O)cc4)cn3)cc2)C2CCN(Cc3ccccc3)CC2)CC1 | 670 |
| COCCNCc1ccc(-c2cccc(CNc3ccc(OC)cc3)c2)cc1 | 1040 |
| O=C(NC1CCCCC1)N(Cc1ccccc1-c1ccc(CNCCc2ccccc2)cc1)C1CCN(Cc2ccccc2)CC1 | 930 |
| O=C(NCCCCCN1CCC(c2c[nH]c3ccccc23)CC1)Nc1cccc(C(F)(F)F)c1 | 1000 |
| O=C(N[C@@H](Cc1ccccc1)C(=O)NC1CCCCCC1)c1ccc(O)c(-c2cccc(C(F)(F)F)c2)c1 | 730 |
| CCNc1cc(C(=O)N[C@@H](Cc2ccccc2)[C@H](O)CNC2(CC)CCCCC2)cc(N2CCCCS2(=O)=O)c1 | 270 |
| O=C(Nc1ccc(-c2nc3ccccc3[nH]2)cc1)c1cncc(Br)c1 | 810 |
| CCC[C@@H]([C@@H](CC1CCCCC1)C(=O)N[C@H](C(=O)Nc1nccs1)[C@H](C)O)N(O)C=O | 150 |
| c1ccc(Oc2cccc(Nc3ccnc4ccccc34)c2)cc1 | 1110 |
| CN(Cc1ccccc1)C1CCN(c2cc(NC(=O)c3cccc(F)c3)ccn2)CC1 | 1510 |
| COc1ccccc1CCNc1nc(C)cc(N[C@@H](Cc2ccccc2)C(=O)Nc2ccccc2)n1 | 1020 |
| CCOc1cc2ccccc2cc1CNCCCCCCNCc1cc2ccccc2cc1OCC | 980 |
| COc1ccc(C2CNCc3c2cc(OC)c(OC)c3Cl)cc1 (stereo not given) | 730 |
| Oc1ccccc1CN[C@@H]1CCCC[C@H]1NCc1ccccc1O | 950 |
| COc1cc(O)c2c(=O)c(OC)c(-c3cccc(Cl)c3OCC(=O)O)oc2c1OC | 590 |
| CN1CCN(CCCNCc2ccc(Nc3nccc(Nc4ccc(Oc5ccccc5)cc4)n3)cc2)CC1 | 630 |
| CCCN(CCC)C(=O)c1cc(C(=O)N[C@@H](Cc2ccccc2)[C@H](O)CNC(C)(C)c2cccc(C(F)(F)F)c2)cc(N2CCCCS2(=O)=O)c1 | 40 |
| CC(C)C[C@H](NC(=O)c1ccc(OCCN2CCOCC2)cc1)C(=O)N[C@H](/C=N/N1CCN(C)C1=O)CCc1ccccc1 | 290 |
| Cc1c(C2CCN(CCCCNC(=O)c3ccc(-c4ccc(C#N)cc4)cc3)CC2)c2ccccc2n1CCO | 1000 |
| Cc1nnsc1C(=O)Nc1cccc(-c2ccc(-c3nc4ccc(F)cc4[nH]3)s2)c1 | 890 |
| Cc1cc2cc(CNCCc3ccccc3Br)ccc2nc1N | 240 |
| COc1cc(Cl)c(C)cc1-n1cc(C(=O)c2cc(Br)ccc2O)cc(C#N)c1=O | 870 |
| Cc1cc(NCCc2ccccc2)nc(NC(=NCC(=O)OC(C)(C)C)Nc2ccc(C(F)(F)F)cc2)n1 | 330 |
| CC(C)Nc1nc(NCCc2cnc[nH]2)nc(NCc2ccc(Cl)c(Cl)c2)n1 | 960 |

| SMILES | IC50 [nM] |
| --- | --- |
| COc1ccc2c(=O)c3ccc(OC)cc3[nH]c2c1 | 810 |
| c1ccc(CN2CCN(CCNc3c4ccccc4nc4ccccc34)CC2)cc1 | 880 |
| COc1cc2nccc(Nc3ccc(OCc4ccc(NC(C)=O)cc4)cc3)c2cc1OC | 550 |
| O=c1[nH]c2ccc3[nH]cccc3c2c1C=Nc1ccc(N2CCN(CCO)CC2)cc1 | 1270 |
| Nc1ncc(-c2ccc(S(=O)(=O)Nc3ccc(C(=O)N[C@@H](CCC(=O)O)C(=O)O)cc3)cc2)c(=O)[nH]1 | 800 |
| CC(=O)NCCNCc1cccc(C(=O)NCc2cccc(C(F)(F)F)c2)c1 | 1080 |
| O=C(/C=C/c1ccc(Cl)cc1)NCCCCCN1CCCN(C(=O)Nc2ccc(Cl)c(C(F)(F)F)c2)CC1 | 910 |
| Cc1cc2nc(-c3ccc(/C=C/C(=O)NCCc4ccccc4)cc3)[nH]c2cc1C | 780 |
| CC1CCC(C[C@@H](C(=O)N[C@@H](CCC(=O)N2CCCCC2)C(=O)Nc2nccs2)[C@H](C(C)C)N(O)C=O)CC1 (stereo not given in full) | 620 |
| Fc1ccc(Nc2ccnc3cc(-c4ccc(CNCCN5CCOCC5)o4)ccc23)c(Cl)c1 | 190 |
| O=[N+]([O-])c1ccc(-c2ccc(C=NNc3nc(Nc4ccccc4)nc(Nc4ccccc4)n3)o2)cc1 | 1430 |
| NC(N)=Nc1nc(-c2cccc(NC(=O)CCCCCCCON3C(N)=NC(N)=NC34CCCCC4)c2)cs1 | 40 |
| CN1CCN(CCCN(Cc2cccc(-c3ccc(CNCCc4ccccc4)cc3)c2)C(=O)c2cccs2)CC1 | 720 |
| C#CCOc1ccc2ccccc2c1CNCCCCCCNCc1c(OCC#C)ccc2ccccc12 | 780 |
| Oc1ccc(Nc2nc(NCC3CCCO3)c3ccccc3n2)cc1 (stereo not given) | 810 |
| CCCNS(=O)(=O)c1ccc(NC(=O)C(C)Oc2ccc([N+](=O)[O-])cc2)cc1 (stereo not given) | 720 |
| CCN(CC)C(=NCCCCCCN=C(/N=C(\N)c1ccc(Cl)cc1)N(CC)CC)/N=C(\N)c1ccc(Cl)cc1 | 380 |
| CN1CCN(c2ccnc3ccc(NC(=O)Nc4cccc5ccccc45)cc23)CC1 | 490 |
| Cc1cc(C)c(NC(=O)NC2CCN(CCCCCNC(=O)/C=C/c3ccc(Cl)c(Cl)c3)C2)c(C)c1 (stereo not given) | 190 |
| CCSc1ccccc1COc1c(C)nc(N)nc1N | 70 |
| COc1ccc(C2CC(c3cccs3)=NN2C(=O)c2ccccc2)cc1OC (stereo not given) | 660 |
| C=CCOc1ccc(CNC2CCN(Cc3ccccc3)CC2)cc1Br | 1420 |
| Cc1ccc(C(=O)Nc2ccc(Nc3ccnc4cc(-c5nccs5)ccc34)cc2O)cc1 | 50 |
| COc1ccc(C(=O)NC(c2ccc(Cl)cc2Cl)c2cc(Cl)c3cccnc3c2O)cc1 (stereo not given) | 500 |

| SMILES | IC50 [nM] |
| --- | --- |
| Cn1cc(C(=O)Nc2cccc(-c3cccc(-c4nc5ccccc5[nH]4)c3)c2)n(C)c1=O | 710 |
| CC(C)Cn1cc2c(ccc3nc(N)nc(N)c32)n1 | 300 |
| CCOc1ccc2nc3cc(NC(=O)c4ccco4)ccc3c(N)c2c1 | 800 |
| OCCCCCCN=Cc1[nH]c(=S)sc1O | 850 |
| CC(C)n1nc(C(=O)N2CCN(c3ccccc3)CC2)c2ccccc2c1=O | 980 |
| CCc1c(C)nc(-n2nc(C)cc2NC(=O)c2ccc(OC)cc2OC)[nH]c1=O | 830 |
| O=C(NCc1ccc(F)cc1)c1cnc(N2CCN(c3ccncc3)CC2)c(Cl)c1 | 1390 |
| Cc1ccc(CN2CCCN(Cc3cccc(C(=O)Nc4ccc(C(C)(C)C)cc4)c3)CC2)s1 | 1130 |
| COCCNCc1cccc(-c2ccc3c(Nc4ccc(Oc5ccccc5)cc4)ccnc3c2)c1 | 520 |
| COc1ccc(CC(=O)NC(CCCN2CCC(c3ccccc3)CC2)c2ccc(Cl)c(Cl)c2)cc1OC (stereo not given) | 1050 |
| O=C(Nc1cccc(CN2CCCN(Cc3ccc(F)cc3)CC2)c1)c1cc2ccccc2s1 | 790 |
| COc1ccc2nccc(N3CCC(SCCNS(=O)(=O)c4ccc5c(c4)NC(=O)CS5)C3)c2n1 (stereo not given) | 1580 |
| O=C(Nc1ccc(Cl)c(C(F)(F)F)c1)c1ccc(Cl)c([N+](=O)[O-])c1 | 1120 |
| Oc1ccc(Cc2cc(Oc3c(I)cc(CCc4ncc[nH]4)cc3I)ccc2O)cc1 | 710 |
| Cc1nn(-c2cccc(C(F)(F)F)c2)c2sc(C(=O)NC3CCN(C(C)C)CC3)cc12 | 900 |
| Cc1cc(-c2ccc(S(=O)(=O)Nc3cc4c(cc3OC(C)C)CCN(C)CC4)cc2)ccc1Cl | 900 |
| CS(=O)(=O)c1ccc(CNCc2ccc(-c3ccc(-c4nc5ccc(F)cc5[nH]4)s3)cc2)cc1 | 270 |
| CCCOc1cccc(C(=O)N[C@@H](Cc2ccccc2)[C@H](O)CNCc2cccc(OC)c2)c1 | 740 |
| CN(C)CC1c2[nH]c3ccccc3c2CCN1C(=O)Nc1ccc(Cl)c(Cl)c1 (stereo not given) | 1210 |
| CCN(CC)CCNc1cc(C)nc(/N=C(\N)Nc2ccc(Cl)cc2)n1 | 130 |
| Cc1cc(C2CCN(CCCCNC(=O)c3ccc(NC(=O)c4ccc(Cl)cc4)cc3)CC2)c(C)cc1OCc1cccnc1 | 600 |
| O=C(Nc1ccc(Cn2ncc(N3CCCNCC3)c(Cl)c2=O)cc1)Nc1cc(F)cc(C(F)(F)F)c1 | 770 |
| Oc1ccc(CCCc2cc(Oc3c(I)cc(CCc4ncc[nH]4)cc3I)ccc2O)cc1 | 870 |
| CCOc1cc(C2C(C(=O)OC(C)C)=C(C)NC3=C2C(=O)CC(c2ccc(Cl)cc2)C3)ccc1OC(C)=O (stereo not given) | 930 |

| SMILES | IC50 [nM] |
| --- | --- |
| COc1cccc2cc(C(=O)N[C@@H](CC(C)C)C(=O)N[C@H](/C=N/N3CCOC3=O)CC(C)C)oc12 | 740 |
| CCOc1ccc2c(NN=Cc3cccc(Cl)c3)cc(C)nc2c1 | 860 |
| CCCCNCc1ccc(OCc2cccc(COc3ccc(CNCCCC)cc3)c2)cc1 | 320 |
| CCN(CC)CCN(Cc1ccc(-c2ccc(C#N)cc2)cc1)C(=O)Cn1c(CCc2cccc(F)c2F)nc(=O)c2ccccc21 | 10 |
| CC(C)c1ccc(N2CCN(CCCCNC(=O)c3ccc(NC(=O)c4cc(Cl)cc(Cl)c4)cc3)CC2)cc1 | 160 |
| O=C(Nc1ccc(F)c(C(F)(F)F)c1)N[C@H]1CCN(CCCCCNC(=O)[C@@H]2C[C@H]2c2ccc(Cl)c(Cl)c2)C1 | 160 |
| Cc1cc(N[C@@H](Cc2ccccc2)C(=O)NC2CCCC2)nc(NCCc2ccc(F)cc2)n1 | 800 |
| COc1ccc2ncc(F)c(CCN3CCC(NCc4cc5c(cn4)OCCS5)CC3)c2c1 | 780 |
| COc1ccccc1C1CC(c2ccccc2)=NN1C(=O)c1ccco1 (stereo not given) | 400 |
| COc1cccc(NC(=O)N2CCOC(CCN3CCC4(CCc5ccccc54)CC3)(c3ccc(Cl)c(Cl)c3)C2)c1 (stereo not given) | 1010 |
| CCN1CCC(N(Cc2ccc(-c3ccc(C(F)(F)F)cc3)cc2)C(=O)Cn2c(CCc3cccc(F)c3F)cc(=O)c3cn(C)nc32)CC1 | 240 |
| COc1ccc(-c2cncc3ccc(C(=O)NCc4ccncc4)nc23)cc1 | 740 |
| COc1ccc2c(c1)c(C1CCN(CCCCNC(=O)c3ccc(-c4ccc(C(F)(F)F)cc4)cc3)CC1)cn2C(C)C | 730 |
| Cc1cc(O)c(CN(C)Cc2ccc(N(C)C)cc2)cc1C(C)C | 550 |
| N#Cc1cccc(C(=O)Nc2ccc(-c3nc4ccccc4[nH]3)cc2)c1 | 540 |
| Cc1noc(C)c1-c1cccc(CNCc2ccc(-c3ccc(-c4nc5c(C)cccc5[nH]4)cc3)cc2)c1 | 240 |
| COc1cc2c(cc1OC)CN(CCCCNC(=O)c1ccc(NC(=O)c3cc(Cl)cc(Cl)c3)cc1)CC2 | 780 |
| CN(Cc1cccc(O)c1)C1CCN(c2cc(NC(=O)c3ccc(F)cc3)ccn2)CC1 | 960 |
| Cc1ccc(Nc2nc(NN=Cc3ccccc3[N+](=O)[O-])nc(Nc3ccc([N+](=O)[O-])cc3)n2)cc1C | 690 |
| O=C(Nc1ccc(-c2cccc(-c3nc4ccccc4[nH]3)c2)cc1)Nc1ccc(Cl)c(Cl)c1 | 460 |
| CC(C)(C)c1cc2cc(Nc3ccnc4cc(-c5nccs5)ccc34)ccc2[nH]1 | 440 |
| CCC(C)CN1CCN(c2cc(NC(=O)c3cccs3)ccn2)C(C)C1 (stereo not given) | 1000 |
| Cc1cccc(CN2CCCN(Cc3ccc(C(=O)Nc4ccc(C(C)(C)C)cc4)cc3)CC2)c1 | 730 |

— PubChem BioAssay AID2305 (GlaxoSmithKline (GSK), 2010)
